In patent US11235074B2, “Contrast agents for magnetic resonance imaging” (Duke University, priority 2015, dated 2022):
Like-named read-outs stand apart in the source and are kept apart here.

Assays:
[1] = In vitro phantom quantitative T2 mapping (spin-spin relaxation MRI contrast) at 7 T
Protocol: Data are provided from quantitative T2 mapping at 7 T using a RARE FSE protocol with at least 6 different echo times, at solute concentrations of 10 and 20 mM.

[2] = system: brain of normal C57 black mouse; test: In vivo ascorbate T2 contrast changes in normal mouse brain; conditions: 2 g/kg i.v., normal C57 mice, FIG. 9B
Protocol: Color-lute maps of signal intensity are not subtracted from the pre-dose scan and therefore show the expected decreases in T2 signal over time, maximized between 30-60 min in normal C57 mice.

[3] = cited from earlier work
[4] = cited from earlier work; remark: listed apart in the source
[5] = cited from earlier work; remark: listed apart in the source
[6] = system: whole brains of guinea pigs; test: T2 contrast changes in guinea pig brain after i.v. ascorbate formulations, 7 T; assay type: in vivo; conditions: 2 g/kg i.v. over 60 minutes, nearly every time point
Protocol: MRI was performed for 90 minutes.

Compound	change in T2 relaxation ([1]; 10 mM ascorbate with physiological glucose (5 mM) or HCO3- (25 mM), FIG. 5)	pH at which T2 effect is maximized ([1]; FIG. 3C)	lowest concentration with statistically significant negative T2 contrast (signal loss) ([1]; vs phosphate-buffered saline control, conventional FSE acquisition, FIG. 3A)	time of maximal decrease in T2 signal [2]	plasma concentration achievable ([3]; administered intravenously)	plasma concentration ([3]; oral ascorbate, doses more than 100 times the recommended daily allowance)	excretion half-life ([3]; urinary excretion of concentrations over the renal re-absorption threshold)	pKA ([4]; disproportionation reaction at equilibrium)	pKA ([4]; hydroxyl group at the 4 position)	fraction present as the mono anion ([4]; physiological pH (7.4))	H2O2 concentration in brain and tumors in vivo following parenteral ascorbate ([5]; brain and tumors)	intracellular concentration ([5]; tumors, brain cells and some other tissues)	T2 contrast effect (T2 relaxation in ms) relative to meglumine or ascorbate alone ([1]; water, neutral pH, FIG. 3D)	FSE T2 weighted signal intensity changes, comparison between formulations [6]
O=C1O[C@H]([C@@H](O)CO)C(O)=C1O [ascorbate, L-ascorbic acid]	50%	7.0-7.4	1 to 5 mM	30 to 60 min	≥ 10000 µM	≤ 200 µM	about 30 minutes	7.0	6.75	99%	100 to 200 µM	10 to 30 mM	–	–
meglumine ascorbate	–	–	–	–	–	–	–	–	–	–	–	–	approximately 4 times	greater than those observed with sodium ascorbate (1)
